Experimental findings from article PMC6367362, “MD001, a Novel Peroxisome Proliferator-activated Receptor α/γ Agonist, Improves Glucose and Lipid Metabolism” (Scientific Reports, 2019) are described below.

Each structure is given as a SMILES string.

This test deals with T1, human HA-PPARα (Homo sapiens, UniProt Q07869).
T1 construct: expressed in transfected cells; host or cells: HEK293
T1 sequence (Q07869 1-468): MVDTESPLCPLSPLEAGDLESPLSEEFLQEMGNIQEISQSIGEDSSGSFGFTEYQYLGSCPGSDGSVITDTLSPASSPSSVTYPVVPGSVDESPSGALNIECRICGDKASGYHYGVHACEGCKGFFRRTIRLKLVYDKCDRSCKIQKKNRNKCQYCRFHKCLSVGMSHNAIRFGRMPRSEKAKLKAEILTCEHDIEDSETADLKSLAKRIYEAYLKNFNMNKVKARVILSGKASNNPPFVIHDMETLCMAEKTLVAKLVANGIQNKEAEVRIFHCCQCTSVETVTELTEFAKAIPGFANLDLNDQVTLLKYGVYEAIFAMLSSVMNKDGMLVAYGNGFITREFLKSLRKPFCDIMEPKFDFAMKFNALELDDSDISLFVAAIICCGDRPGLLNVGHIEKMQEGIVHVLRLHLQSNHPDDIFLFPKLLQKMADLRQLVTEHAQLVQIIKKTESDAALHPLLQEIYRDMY
The experiment in a line: PPRE luciferase activity assay in HEK293 cells transfected with HA-PPARα. The format is cell-based. Particulars: HEK293, PPRE-pk-Luc. Also noted: transcriptional activity of PPARα: dose or concentration left out as unconfirmed. As to the method: Figure 2 MD001 induces the expression of target genes through PPARα and PPARγ activation. HEK293 cells were transiently co-transfected with human HA-PPARα (A) and HA-PPARγ (B) expression vectors along with the reporter plasmid (PPRE-pk-Luc) or control reporter plasmid (pk-Luc) with Renilla vector for 24 h. Cells were treated with MD001 (10 μM), rosiglitazone (rosi) (10 μM) or WY14643 (WY) (10 μM) for 24 h. Luciferase activity was normalised to Renilla luciferase activity as described in the Methods section. **, vs. vehicle. (C) HepG2 cells were treated with MD001 (10 μM) for 24 h, and total RNA was isolated and synthesised into cDNA. Relative expression was quantitated using qRT-PCR. **, vs. vehicle. (D,E) HepG2 cells were transfected with control siRNA, PPARα siRNA (D), or PPARγ siRNA (E) for 48 h and treated with vehicle, WY14643 (10 μM), rosiglitazone (10 μM) or MD001 (10 μM) for 24 h. Subsequently, cells were harvested for total RNA isolation. Relative expression of target genes was quantitated using qRT-PCR. ^#, vs. control siRNA; ^‡, vs. control siRNA/vehicle; ^§, vs. control siRNA/WY; * and **, vs. control siRNA/MD001. Data represent the mean ± SD of three independent experiments. *P < 0.05, **P < 0.01, ^#P < 0.01, ^‡P < 0.01, and ^§P < 0.01.
For transient transfection, cells were transfected with plasmid DNA constructs by polyethylenimine (PEI, Polysciences, Inc., Warrington, PA, USA) according to the manufacturer’s instructions. Transcription activity assays of PPARα and PPARγ in HEK293 cells were performed by co-transfection of HA-PPARα, HA-PPARγ, and peroxisome proliferator-response element (PPRE) reporter plasmid (PPRE-pk-Luc) or control reporter plasmid (pk-Luc) with Renilla vector for 24 h. […] Luciferase activity was measured with the Dual-Luciferase Reporter Assay System (Promega, Madison, WI, USA) and quantified using GloMax (Promega, USA) according to the manufacturer’s protocol. […]
Luciferase activity was measured as described in the Methods section. […]

Consider `Cc1c(O)cc(O)c2c(-c3ccccc3)c(C(=O)/C=C/c3ccccc3)c(=O)oc12` [MD001], for which the “transcription via PPARα activation (luciferase activity)” value (10 μM, 24 h, vs. vehicle) is listed as “significantly increased”. Under “24 h (Supplementary Fig. S2)”, the “transcriptional activity of PPARα” value was “promoted simultaneous transcriptional activity”.
